Experimental findings from US20260060250A1, “HERBICIDAL PYRIDONE DERIVATIVES” (SYNGENTA CROP PROTECTION AG, priority 2022, published 2026) are described below.

Common to all, as to format: in vivo
Holding throughout (conditions): 1000 g/ha, evaluated after 13 days

Assay [1] concerns Amaranthus palmeri (AMAPA). Nature of the assay: Pre-emergence Test (Table B1).
The test system of assay [2] is Setaria faberi (SETFA). Nature of the assay: Pre-emergence Test (Table B1). More on the design: key: 5=81-100%; 4=61-80%; 3=41-60%; 2=21-40%; 1=0-20%; 0=inactive.
The test system of assay [3] is Echinochloa crus-galli (ECHCG). Nature of the assay: Pre-emergence Test (Table B1). Also on record: key: 5=81-100%; 4=61-80%; 3=41-60%; 2=21-40%; 1=0-20%; 0=inactive.
Assay [4] deals with Amaranthus retroflexus (AMARE). In words: Pre-emergence Test (Table B1).
The test system of assay [5] is Zea mays (ZEAMX). In words: Pre-emergence Test (Table B1). Also on record: key: 5=81-100%; 4=61-80%; 3=41-60%; 2=21-40%; 1=0-20%; 0=inactive.
In assay [6] the test system is Ipomoea hederacea (IPOHE). Nature of the assay: Pre-emergence Test (Table B1). More on the design: key: 5=81-100%; 4=61-80%; 3=41-60%; 2=21-40%; 1=0-20%; 0=inactive.
The test system of assay [7] is Amaranthus palmeri (AMAPA). In words: Post-emergence Test (Table B2). The method, then: (§1) Seeds of a variety of test species are sown in standard soil in pots (Amaranthus palmeri (AMAPA), Setaria faberi (SETFA), Echinochloa crus-galli (ECHCG), (Amaranthus retroflexus (AMARE), Zea mays (ZEAMX), Ipomoea hederacea (IPOHE)). After 8 days cultivation under controlled conditions in a glasshouse (at 24° C./16° C., day/night; 14 hours light; 65% humidity), the plants are sprayed with an aqueous spray solution derived from the formulation of the technical active ingredient in acetone/water (50:50) solution containing 0.5% Tween 20 (polyoxyethelyene sorbitan monolaurate, CAS RN 9005-64-5). Compounds are applied at 1000 g/ha unless otherwise stated. The test plants are then grown in a glasshouse under controlled conditions in a glasshouse (at 24° C./16° C., day/night; 14 hours light; 65% humidity) and watered twice daily. After 13 days the test is evaluated for the percentage damage caused to the plant.

The test system of assay [8] is Amaranthus retroflexus (AMARE). In words: Post-emergence Test (Table B2). The method, then: as §1
Assay [9] has as its system Setaria faberi (SETFA). In words: Post-emergence Test (Table B2). The protocol: as §1
Assay [10] deals with Echinochloa crus-galli (ECHCG). Nature of the assay: Post-emergence Test (Table B2). The protocol:
as §1

Assay [11] concerns Ipomoea hederacea (IPOHE). In words: Post-emergence Test (Table B2). The method, then:
as §1

Assay [12] relates to Zea mays (ZEAMX). Nature of the assay: Post-emergence Test (Table B2). The protocol:
as §1

On to `CCn1c(C)c(-c2cc(C(=O)OC(C)C3CC3)ccc2F)c(=O)c(C(=O)O)c1-c1ccc(Cl)c(Cl)c1` (stereo not drawn) [Compound 8, 5-[5-(1-cyclopropylethoxycarbonyl)-2-fluoro-phenyl]-2-(3,4-dichlorophenyl)-1-ethyl-6-methyl-4-oxo-pyridine-3-carboxylic acid], for which the “percentage damage caused to the plant, AMAPA” value in assay [1] is on record as 4 (4=61-80%); in [7], 5 (5=81-100%). The results for the “percentage damage caused to the plant, SETFA” value in the assay on Setaria faberi (SETFA) [2] and with Setaria faberi (SETFA) [9] were 0 and 2 (2=21-40%), respectively. For the same compound, the figures for the “percentage damage caused to the plant, ECHCG” value in assay [3] and in [10] were 0 and 1 (1=0-20%), respectively. The “percentage damage caused to the plant, AMARE” value is given as 5 (5=81-100%) in assay [4] and 4 (4=61-80%) in assay [8]. The “percentage damage caused to the plant, ZEAMX” value in the assay on Zea mays (ZEAMX) [5] is reported as 0; in the assay with Zea mays (ZEAMX) [12], 3 (3=41-60%). The “percentage damage caused to the plant, IPOHE” value in [6] is 0; in [11] it was 1 (1=0-20%).

Consider `CCn1c(C)c(-c2cc(C(=O)OC(C)CF)ccc2F)c(=O)c(C(=O)O)c1-c1ccc(Cl)c(Cl)c1` (stereo not drawn) [Compound 9, 2-(3,4-dichlorophenyl)-1-ethyl-5-[2-fluoro-5-(2-fluoro-1-methyl-ethoxy)carbonyl-phenyl]-6-methyl-4-oxo-pyridine-3-carboxylic acid], for which the “percentage damage caused to the plant, AMAPA” value in assay [1] is recorded as 5 (5=81-100%); in assay [7], 4 (4=61-80%). Moreover, the “percentage damage caused to the plant, SETFA” value is reported as 2 (2=21-40%) with Setaria faberi (SETFA) [2] and 3 (3=41-60%) in the assay on Setaria faberi (SETFA) [9]. The “percentage damage caused to the plant, ECHCG” value in assay [3] is on record as 1 (1=0-20%); in [10], 2 (2=21-40%). Further, the “percentage damage caused to the plant, AMARE” value in assay [4] and in assay [8] was 5 (5=81-100%) each time. The figures for the “percentage damage caused to the plant, ZEAMX” value in the assay with Zea mays (ZEAMX) [5] and in the assay on Zea mays (ZEAMX) [12] were 1 (1=0-20%) and 2 (2=21-40%), respectively. Moreover, the “percentage damage caused to the plant, IPOHE” value is on record as 0 in assay [6] and 1 (1=0-20%) in assay [11].

Consider `CCn1c(C)c(-c2cc(C(=O)OC(C)C(C)=O)ccc2F)c(=O)c(C(=O)O)c1-c1ccc(Cl)c(Cl)c1` (stereo not drawn) [Compound 10, 2-(3,4-dichlorophenyl)-1-ethyl-5-[2-fluoro-5-(1-methyl-2-oxo-propoxy)carbonyl-phenyl]-6-methyl-4-oxo-pyridine-3-carboxylic acid], for which the “percentage damage caused to the plant, AMAPA” value in assay [1] and in [7] was 5 (5=81-100%) throughout. Besides, the “percentage damage caused to the plant, SETFA” value is recorded as 0 in the assay on Setaria faberi (SETFA) [2] and 4 (4=61-80%) with Setaria faberi (SETFA) [9]. The “percentage damage caused to the plant, ECHCG” value in assay [3] is 0; in assay [10], 2 (2=21-40%). Moreover, the “percentage damage caused to the plant, AMARE” value in assay [4] and in [8] was 5 (5=81-100%) throughout. Moreover, the “percentage damage caused to the plant, ZEAMX” value with Zea mays (ZEAMX) [5] is recorded as 0; with Zea mays (ZEAMX) [12] it was 3 (3=41-60%). Also, the “percentage damage caused to the plant, IPOHE” value in assay [6] was 0; in assay [11], 1 (1=0-20%).

Regarding `CCC#CC(C)OC(=O)c1ccc(F)c(-c2c(C)n(CC)c(-c3ccc(Cl)c(Cl)c3)c(C(=O)O)c2=O)c1` (stereo not drawn) [Compound 11, 2-(3,4-dichlorophenyl)-1-ethyl-5-[2-fluoro-5-(1-methylpent-2-ynoxycarbonyl)phenyl]-6-methyl-4-oxo-pyridine-3-carboxylic acid], the “percentage damage caused to the plant, AMAPA” value in assay [1] and in assay [7] was 5 (5=81-100%) each time. The “percentage damage caused to the plant, SETFA” value with Setaria faberi (SETFA) [2] was 0; in the assay with Setaria faberi (SETFA) [9] it was 4 (4=61-80%). Also, the “percentage damage caused to the plant, ECHCG” value in assay [3] was 0; in assay [10], 4 (4=61-80%). The “percentage damage caused to the plant, AMARE” value in assay [4] and in [8] was 5 (5=81-100%) in each case. In addition, the “percentage damage caused to the plant, ZEAMX” value with Zea mays (ZEAMX) [5] is recorded as 0; in the assay with Zea mays (ZEAMX) [12] it was 2 (2=21-40%). The “percentage damage caused to the plant, IPOHE” value in [6] is recorded as 0; in assay [11], 3 (3=41-60%).

As to `C#CC(C)OC(=O)c1ccc(F)c(-c2c(C)n(CC)c(-c3ccc(Cl)c(Cl)c3)c(C(=O)O)c2=O)c1` (stereo not drawn) [Compound 12, 2-(3,4-dichlorophenyl)-1-ethyl-5-[2-fluoro-5-(1-methylprop-2-ynoxycarbonyl)phenyl]-6-methyl-4-oxo-pyridine-3-carboxylic acid], the entries for the “percentage damage caused to the plant, AMAPA” value in [1] and in assay [7] were 4 (4=61-80%) and 5 (5=81-100%), respectively. For the same compound, the figures for the “percentage damage caused to the plant, SETFA” value in the assay on Setaria faberi (SETFA) [2] and in the assay on Setaria faberi (SETFA) [9] were 4 (4=61-80%) and 5 (5=81-100%), respectively. For the same compound, the “percentage damage caused to the plant, ECHCG” value is reported as 3 (3=41-60%) in assay [3] and 4 (4=61-80%) in assay [10]. Also, the “percentage damage caused to the plant, AMARE” value in assay [4] and in assay [8] was 5 (5=81-100%) each time. The results for the “percentage damage caused to the plant, ZEAMX” value in the assay on Zea mays (ZEAMX) [5] and with Zea mays (ZEAMX) [12] were 1 (1=0-20%) and 3 (3=41-60%), respectively. For the same compound, the “percentage damage caused to the plant, IPOHE” value is on record as 1 (1=0-20%) in assay [6] and 2 (2=21-40%) in assay [11].

Regarding `C=CCC(C)OC(=O)c1ccc(F)c(-c2c(C)n(CC)c(-c3ccc(Cl)c(Cl)c3)c(C(=O)O)c2=O)c1` (stereo not drawn) [Compound 13, 2-(3,4-dichlorophenyl)-1-ethyl-5-[2-fluoro-5-(1-methylbut-3-enoxycarbonyl)phenyl]-6-methyl-4-oxo-pyridine-3-carboxylic acid], the “percentage damage caused to the plant, AMAPA” value in [1] and in [7] was 4 (4=61-80%) in each case. The “percentage damage caused to the plant, SETFA” value in the assay with Setaria faberi (SETFA) [2] and with Setaria faberi (SETFA) [9] was 2 (2=21-40%) each time. In addition, the “percentage damage caused to the plant, ECHCG” value in [3] and in assay [10] was 1 (1=0-20%) each time. Besides, the “percentage damage caused to the plant, AMARE” value in assay [4] and in [8] was 4 (4=61-80%) each time. The results for the “percentage damage caused to the plant, ZEAMX” value in the assay with Zea mays (ZEAMX) [5] and in the assay on Zea mays (ZEAMX) [12] were 0 and 2 (2=21-40%), respectively. Moreover, the “percentage damage caused to the plant, IPOHE” value in [6] was 0; in [11], 2 (2=21-40%).
